From patent US20260256925A1, “INDAZOLE DERIVATIVES AS ESTROGEN RECEPTOR DEGRADERS” (REGENTS OF THE UNIVERSITY OF MICHIGAN, priority 2022, published 2026)
pIC50: −log10 of the molar value.

Legend:
[1] = Cell growth assay, WST-8 (compounds B1-B126); assay type: cell-based; conditions: 96 h; T47D cell line, WST-8, 4 days; read-out: Cell growth inhibition in T47D cell line IC50
Outline: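 Read-out is WST-8 absorbance at 450 nm (2.5 h, 37° C) as a fraction of vehicle control, from three separate repeats. Compound exposure lasted 4 days, starting one day after plating 1500 cells/well.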

ER = molecular target: T1, ER (Homo sapiens, UniProt P03372); assay: In-cell western blot analysis, relative ER percentage (compounds B1-B126); assay type: cell-based; conditions: ER degradation, 16 hours, read-out: ICW DC50
T1 construct: endogenous in cells; probably T47D or MCF-7
T1 sequence (P03372 1-595): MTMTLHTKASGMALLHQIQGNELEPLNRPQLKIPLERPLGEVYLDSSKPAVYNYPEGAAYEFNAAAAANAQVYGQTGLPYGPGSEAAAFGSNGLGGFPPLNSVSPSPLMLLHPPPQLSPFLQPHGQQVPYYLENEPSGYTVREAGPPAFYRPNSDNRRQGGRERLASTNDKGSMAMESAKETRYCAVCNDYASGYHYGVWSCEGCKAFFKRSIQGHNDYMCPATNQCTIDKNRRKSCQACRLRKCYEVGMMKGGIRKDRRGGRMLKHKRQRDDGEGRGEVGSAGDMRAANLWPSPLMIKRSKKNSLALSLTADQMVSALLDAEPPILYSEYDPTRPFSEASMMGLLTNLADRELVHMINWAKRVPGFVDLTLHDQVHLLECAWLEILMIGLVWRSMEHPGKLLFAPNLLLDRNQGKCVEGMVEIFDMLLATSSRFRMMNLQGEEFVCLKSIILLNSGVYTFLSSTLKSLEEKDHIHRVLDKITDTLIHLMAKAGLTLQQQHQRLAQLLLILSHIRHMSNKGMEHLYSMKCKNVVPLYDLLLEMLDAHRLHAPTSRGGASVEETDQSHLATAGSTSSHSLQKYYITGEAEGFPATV
Outline: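 Readout was a two-colour infrared in-cell western of formaldehyde-fixed cells after 16 h compound exposure at 0.5% DMSO, with 40,000 or 10,000 cells/well plated the previous night. Relative ER percentage compares treated wells against untreated/DMSO-treated wells taken as 100%.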

SMILES	DC50 (ER) [nM]	pIC50 [1]
COc1cc(N2CC3(CCC(CN4CCN5c6ccc7c(c6OC[C@H]5C4)CN(C4CCC(=O)NC4=O)C7=O)CC3)C2)ccc1[C@@H]1c2ccc3[nH]ncc3c2C[C@@H](C)N1CC(F)F (stereo partly drawn) [Compound B84, 3-((R)-7-((2-(4-((6S,8R)-7-(2,2-difluoroethyl)-8-methyl-6,7,8,9-tetrahydro-3H-pyrazolo[4,3-f]isoquinolin-6-yl)-3-methoxyphenyl)-2-azaspiro[3.5]nonan-7-yl)methyl)-1-oxo-1,3,5,5a,6,7,8,9-octahydro-2H-pyrazino[1′,2′:4,5][1,4]oxazino[2,3-e]isoindol-2-yl)piperidine-2,6-dione]	> 100	< 8.00
C[C@@H]1Cc2c(ccc3[nH]ncc23)[C@@H](c2c(F)cc(N3CCC4(CN(C(=O)CN5CCN6c7cc8c(cc7OC[C@@H]6C5)C(=O)N(C5CCC(=O)NC5=O)C8)C4)C3)cc2F)N1CC(F)F (stereo partly drawn) [Compound B37, 3-((S)-3-(2-(6-(4-((6S,8R)-7-(2,2-difluoroethyl)-8-methyl-6,7,8,9-tetrahydro-3H-pyrazolo[4,3-f]isoquinolin-6-yl)-3,5-difluorophenyl)-2,6-diazaspiro[3.4]octan-2-yl)-2-oxoethyl)-8-oxo-1,2,3,4,4a,5,8,10-octahydro-9H-pyrazino[1′,2′:4,5][1,4]oxazino[2,3-f]isoindol-9-yl)piperidine-2,6-dione]	< 10	> 9.00
C[C@@H]1Cc2c(ccc3[nH]ncc23)[C@@H](c2cnc(N3CCC4(CCC(CN5CCC6(CC5)COc5c6ccc6c5CN([C@H]5CCC(=O)NC5=O)C6=O)CO4)CC3)nc2)N1CC(F)(F)F (stereo partly drawn) [Compound B126, (3S)-3-(1′-((9-(5-((6S,8R)-8-methyl-7-(2,2,2-trifluoroethyl)-6,7,8,9-tetrahydro-3H-pyrazolo[4,3-f]isoquinolin-6-yl)pyrimidin-2-yl)-1-oxa-9-azaspiro[5.5]undecan-3-yl)methyl)-6-oxo-6,8-dihydro-2H,7H-spiro[furo [2,3-e]isoindole-3,4′-piperidin]-7-yl)piperidine-2,6-dione]	< 10	> 9.00
C[C@@H]1Cc2c(ccc3[nH]ncc23)[C@@H](c2c(F)cc(NC3CN(C(=O)CN4CCN5c6cc7c(cc6OC[C@@H]5C4)C(=O)N(C4CCC(=O)NC4=O)C7)C3)cc2F)N1CC(F)F (stereo partly drawn) [Compound B26, 3-((S)-3-(2-(3-((4-((6S,8R)-7-(2,2-difluoroethyl)-8-methyl-6,7,8,9-tetrahydro-3H-pyrazolo[4,3-f]isoquinolin-6-yl)-3,5-difluorophenyl)amino)azetidin-1-yl)-2-oxoethyl)-8-oxo-1,2,3,4,4a,5,8,10-octahydro-9H-pyrazino[1′,2′:4,5][1,4]oxazino[2,3-f]isoindol-9-yl)piperidine-2,6-dione]	< 10	> 9.00
C[C@@H]1Cc2c(ccc3[nH]ncc23)[C@@H](c2c(F)cc(N3CC4(CN(CC(=O)N5CCN6c7cc8c(cc7OC[C@@H]6C5)C(=O)N(C5CCC(=O)NC5=O)C8)C4)C3)cc2F)N1CC(F)F (stereo partly drawn) [Compound B38, 3-((S)-3-(2-(6-(4-((6S,8R)-7-(2,2-difluorocthyl)-8-mcthyl-6,7,8,9-tetrahydro-3H-pyrazolo[4,3-f]isoquinolin-6-yl)-3,5-difluorophenyl)-2,6-diazaspiro[3.3]heptan-2-yl)acetyl)-8-oxo-1,2,3,4,4a,5,8,10-octahydro-9H-pyrazino[1′,2′:4,5][1,4]oxazino[2,3-f]isoindol-9-yl)piperidine-2,6-dione]	< 10	> 9.00
C[C@@H]1Cc2c(ccc3[nH]ncc23)[C@@H](c2ccc(N3CCC(CN4CCC5(CC4)COc4c5ccc5c4CN(C4CCC(=O)NC4=O)C5=O)CC3)cn2)N1CC(F)(F)F (stereo partly drawn) [Compound B62, 3-(1′-((1-(6-((6S,8R)-8-methyl-7-(2,2,2-trifluoroethyl)-6,7,8,9-tetrahydro-3H-pyrazolo[4,3-f]isoquinolin-6-yl)pyridin-3-yl)piperidin-4-yl)methyl)-6-oxo-6,8-dihydro-2H,7H-spiro[furo[2,3-e]isoindole-3,4′-piperidin]-7-yl)piperidine-2,6-dione]	> 100	> 9.00
C[C@@H]1Cc2c(ccc3[nH]ncc23)[C@@H](c2ccc(N3CC4(CCC(CN5CCC6(CC5)COc5c6ccc6c5CN(C5CCC(=O)NC5=O)C6=O)CC4)C3)cn2)N1CC(F)(F)F (stereo partly drawn) [Compound B57, 3-(1′-((2-(6-((6S,8R)-8-mcthyl-7-(2,2,2-trifluoroethyl)-6,7,8,9-tetrahydro-3H-pyrazolo[4,3-f]isoquinolin-6-yl)pyridin-3-yl)-2-azaspiro[3.5]nonan-7-yl)methyl)-6-oxo-6,8-dihydro-2H,7H-spiro[furo[2,3-e]isoindole-3,4′-piperidin]-7-yl)piperidine-2,6-dione]	< 10	> 9.00
C[C@@H]1Cc2c(ccc3[nH]ncc23)[C@@H](c2ccc(N3CC4(CCC(CN5CCC6(CCOc7c6ccc6c7CN(C7CCC(=O)NC7=O)C6=O)CC5)CC4)C3)cn2)N1CC(F)(F)F (stereo partly drawn) [Compound B58, 3-(1-((2-(6-((6S,8R)-8-methyl-7-(2,2,2-trifluoroethyl)-6,7,8,9-tetrahydro-3H-pyrazolo[4,3-f]isoquinolin-6-yl)pyridin-3-yl)-2-azaspiro[3.5]nonan-7-yl)methyl)-7′-oxo-2′,3′,7′,9′-tetrahydro-8′H-spiro[piperidine-4,4′-pyrano[2,3-e]isoindol]-8′-yl)piperidine-2,6-dione]	> 100	> 9.00
C[C@@H]1Cc2c(ccc3[nH]ncc23)[C@@H](c2c(F)cc(N3CC4(CN(CC(=O)N5CCN6c7ccc8c(c7OC[C@H]6C5)CN(C5CCC(=O)NC5=O)C8=O)C4)C3)cc2F)N1CC(F)F (stereo partly drawn) [Compound B98, 3-((R)-7-(2-(6-(4-((6S,8R)-7-(2,2-difluoroethyl)-8-methyl-6,7,8,9-tetrahydro-3H-pyrazolo[4,3-f]isoquinolin-6-yl)-3,5-difluorophenyl)-2,6-diazaspiro[3.3]heptan-2-yl)acetyl)-1-oxo-1,3,5,5a,6,7,8,9-octahydro-2H-pyrazino[1′,2′:4,5][1,4]oxazino[2,3-e]isoindol-2-yl)piperidine-2,6-dione]	< 10	> 9.00

Continued, in another order:

DC50 (ER) [nM]	SMILES	pIC50 [1]
< 10	C[C@@H]1Cc2c(ccc3[nH]ncc23)[C@@H](c2ccc(N3CC4(CCC(CN5CCN6c7ccc8c(c7OC[C@H]6C5)CN(C5CCC(=O)NC5=O)C8=O)CC4)C3)cn2)N1CC(F)F (stereo partly drawn) [Compound B86, 3-((R)-7-((2-(6-((6S,8R)-7-(2,2-difluoroethyl)-8-methyl-6,7,8,9-tetrahydro-3H-pyrazolo[4,3-f]isoquinolin-6-yl)pyridin-3-yl)-2-azaspiro[3.5]nonan-7-yl)mcthyl)-1-oxo-1,3,5,5a,6,7,8,9-octahydro-2H-pyrazino[1′,2′:4,5][1,4]oxazino[2,3-e]isoindol-2-yl)piperidine-2,6-dione]	8.00 to 9.00
10 to 100	C[C@@H]1Cc2c(ccc3[nH]ncc23)[C@@H](c2ccc(N3CCC4(CC3)CC(CN3CCN5c6cc7c(cc6OC[C@@H]5C3)C(=O)N(C3CCC(=O)NC3=O)C7)C4)cn2)N1CC(F)(F)F (stereo partly drawn) [Compound B77, 3-((S)-3-((7-(6-((6S,8R)-8-methyl-7-(2,2,2-trifluoroethyl)-6,7,8,9-tetrahydro-3H-pyrazolo[4,3-f]isoquinolin-6-yl)pyridin-3-yl)-7-azaspiro[3.5]nonan-2-yl)methyl)-8-oxo-1,2,3,4,4a,5,8,10-octahydro-9H-pyrazino[1′,2′:4,5][1,4]oxazino[2,3-f]isoindol-9-yl)piperidine-2,6-dione]	8.00 to 9.00
< 10	C[C@@H]1Cc2c(ccc3[nH]ncc23)[C@@H](c2ccc(N3CC4(CCC(CN5CCN6c7cc8c(cc7N(C)C[C@@H]6C5)C(=O)N(C5CCC(=O)NC5=O)C8)CC4)C3)cn2)N1CC(F)(F)F (stereo partly drawn) [Compound B59, 3-((S)-6-methyl-3-((2-(6-((6S,8R)-8-methyl-7-(2,2,2-trifluoroethyl)-6,7,8,9-tetrahydro-3H-pyrazolo[4,3-f]isoquinolin-6-yl)pyridin-3-yl)-2-azaspiro[3.5]nonan-7-yl)methyl)-8-oxo-2,3,4,4a,5,6,8,10-octahydropyrazino[1,2-a]pyrrolo[3,4-g]quinoxalin-9(1H)-yl)piperidine-2,6-dione]	8.00 to 9.00
10 to 100	C[C@@H]1Cc2c(ccc3[nH]ncc23)[C@@H](c2ccc(N3CCC4(CC3)CC(CN3CCN5c6ccc7c(c6OC[C@@H]5C3)CN(C3CCC(=O)NC3=O)C7=O)C4)cn2)N1CC(F)(F)F (stereo partly drawn) [Compound B107, 3-((S)-7-((7-(6-((6S,8R)-8-methyl-7-(2,2,2-trifluoroethyl)-6,7,8,9-tetrahydro-3H-pyrazolo[4,3-f]isoquinolin-6-yl)pyridin-3-yl)-7-azaspiro[3.5]nonan-2-yl)methyl)-1-oxo-1,3,5,5a,6,7,8,9-octahydro-2H-pyrazino[1′,2′:4,5][1,4]oxazino[2,3-e]isoindol-2-yl)piperidine-2,6-dione]	> 9.00
